# Measured values from US10004730B2, “Small molecules targeting androgen receptor nuclear localization and/or level in prostate cancer” (University of Pittsburgh-Of the Commonwealth System of …, priority 2011, dated 2018).
# Assays:
# Type in all cases: cell-based
# C4-2 cells = experiment: Cell survival, crystal violet staining, C4-2; settings: 48 hrs
# Description: FIGS. 8A and 8B. Effect of SID 14730725 and SID 3712502 on survival of PC3 (FIG. 8A) and C4-2 cells (FIG. 8B). PC3 or C4-2 cells were plated in 12-well plates at 2,500 cell per well in RPMI 1640 complete medium. After 24 hrs, the cells were treated with SID 14730725 or SID 3712502 at the indicated concentrations for 48 hrs. The wells were washed with PBS thrice and fixed in 0.5% crystal Violet in methanol. C=control; treated with vehicle DMSO.
# LAPC4 cells = experiment: BrdU incorporation, LAPC4; settings: LAPC4, 48 hrs
# Description: (§1) FIGS. 14A-F. Effect of SID 3712502 at indicated concentrations on BrdU incorporation in cultured AR-positive LNCaP (FIG. 14A), C4-2 (FIG. 14B), 22Rv1 (FIG. 14C), LAPC4 (FIG. 14D) cells, and AR-negative DU145 (FIG. 14E) and PC3 (FIG. 14F) cells. Cells were plated in 12-well plates at 2,500 cell per well in RPMI 1640 complete medium. After 24 hrs, the cells were treated with SID 3712502 at the indicated concentrations for 48 hrs and BrdU incorporation was assayed according to manufacturer's instructions (Invitrogen BrdU staining kit; catalog #: 93-3943). The percentage of BrdU-positive cells was determined and then normalized to generate relative BrdU index. Ctrl=DMSO control.
# GFP-GR = molecular target: T1, GFP-GR (Homo sapiens, UniProt P04150); experiment: GFP-GR nuclear localization in transfected C4-2 cells; settings: co-treated with 0.5 μM Dexamethasone, 24 hours
# T1 construct: expressed in transfected cells; host or cells: C4-2
# T1 sequence (P04150 whole entry): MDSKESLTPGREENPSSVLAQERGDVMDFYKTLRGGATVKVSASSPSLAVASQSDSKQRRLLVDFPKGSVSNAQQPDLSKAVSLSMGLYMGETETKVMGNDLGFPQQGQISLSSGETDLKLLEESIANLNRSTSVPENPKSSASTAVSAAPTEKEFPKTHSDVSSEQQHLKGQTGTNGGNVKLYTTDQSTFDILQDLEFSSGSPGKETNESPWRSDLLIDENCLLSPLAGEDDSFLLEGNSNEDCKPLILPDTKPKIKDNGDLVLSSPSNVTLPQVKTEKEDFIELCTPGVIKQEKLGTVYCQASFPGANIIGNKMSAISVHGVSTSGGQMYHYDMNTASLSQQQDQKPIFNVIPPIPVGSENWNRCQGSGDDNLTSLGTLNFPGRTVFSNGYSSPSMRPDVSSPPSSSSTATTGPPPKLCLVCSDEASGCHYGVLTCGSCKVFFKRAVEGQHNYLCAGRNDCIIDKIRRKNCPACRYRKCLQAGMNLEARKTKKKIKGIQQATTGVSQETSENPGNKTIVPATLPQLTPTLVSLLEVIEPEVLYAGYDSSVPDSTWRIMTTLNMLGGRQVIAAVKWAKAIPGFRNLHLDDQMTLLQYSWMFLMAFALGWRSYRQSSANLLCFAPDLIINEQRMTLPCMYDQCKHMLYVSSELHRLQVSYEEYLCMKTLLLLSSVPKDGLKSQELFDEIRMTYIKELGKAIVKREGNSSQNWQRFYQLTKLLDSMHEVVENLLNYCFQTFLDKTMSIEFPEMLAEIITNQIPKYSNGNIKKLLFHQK
# Description: FIG. 7. The effect of SID 14730725 and SID 3712502 on nuclear localization of GFP-ER (Top panel) and GFP-GR (Bottom panel) in C4-2 cells. C4-2 cells were transfected with GFP-ER or GFP-GR overnight. The following day the cells were treated with different concentrations (uM) of the small molecules. The cells transfected with GFP-GR were co-treated with 0.5 μM Dexamethasone. Cells were imaged 24 hours after the treatment with the small molecules.
# LNCaP cells = experiment: BrdU incorporation, LNCaP; settings: 48 hrs
# Description: as §1
# GFP-AR = molecular target: T2, GFP-AR (Homo sapiens, UniProt P10275); experiment: Localization of transiently transfected GFP-AR by fluorescence microscopy; settings: transfected C4-2 cells, complete RPMI with 10% FBS, overnight treatment
# T2 construct: expressed in transfected cells; also PC3 and LNCaP (transient)
# T2 sequence (P10275 1-920): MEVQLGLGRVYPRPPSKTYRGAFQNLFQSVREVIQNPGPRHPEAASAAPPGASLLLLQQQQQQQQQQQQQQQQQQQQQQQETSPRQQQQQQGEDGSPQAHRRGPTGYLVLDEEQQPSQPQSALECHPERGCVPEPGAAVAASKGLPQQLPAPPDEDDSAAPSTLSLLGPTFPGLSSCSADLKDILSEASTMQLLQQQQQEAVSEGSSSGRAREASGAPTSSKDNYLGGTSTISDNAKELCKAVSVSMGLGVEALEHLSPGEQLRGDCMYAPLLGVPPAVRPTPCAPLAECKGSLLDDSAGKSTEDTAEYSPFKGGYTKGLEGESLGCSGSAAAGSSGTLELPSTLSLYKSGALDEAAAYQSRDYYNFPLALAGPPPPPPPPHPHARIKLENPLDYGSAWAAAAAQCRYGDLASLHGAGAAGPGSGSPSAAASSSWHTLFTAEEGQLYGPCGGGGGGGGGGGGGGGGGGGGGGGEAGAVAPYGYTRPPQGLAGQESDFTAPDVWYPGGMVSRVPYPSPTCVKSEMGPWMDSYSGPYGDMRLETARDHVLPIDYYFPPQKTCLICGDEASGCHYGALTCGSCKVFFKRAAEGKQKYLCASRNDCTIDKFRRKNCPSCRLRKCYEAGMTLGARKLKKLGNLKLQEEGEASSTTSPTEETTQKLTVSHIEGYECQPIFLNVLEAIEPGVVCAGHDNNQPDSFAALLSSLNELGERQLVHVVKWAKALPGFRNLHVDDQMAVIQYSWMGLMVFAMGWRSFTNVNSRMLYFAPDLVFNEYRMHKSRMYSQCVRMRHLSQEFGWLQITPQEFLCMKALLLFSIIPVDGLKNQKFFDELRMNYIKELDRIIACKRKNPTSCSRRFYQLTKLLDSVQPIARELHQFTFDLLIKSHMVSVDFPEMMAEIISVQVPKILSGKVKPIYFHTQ
# Description: FIGS. 2A and 2B. Localization of GFP-AR in AR-negative PC3, androgen-sensitive LNCaP, and CRPC C4-2 cells. […] PC3, LNCaP, and C4-2 cells were transfected with GFP-AR and localization was assessed in ligand-free conditions or in the presence of mibolerone by fluorescence microscopy within 24 hours of transfection. The results in FIG. 2B are from five transfections for each cell line in the absence of androgen. At least 50 cells were counted after each transfection. Error bars represent ±SEM.
# FIGS. 3A and 3B. […] FIG. 3A. […] Localization was assessed by fluorescence microscopy 4 hours after treatment. FIG. 3B.
# FIGS. 6A, 6B, 6C and 6D. FIG. 6A. […] FIG. 6B. […] C4-2 cells were transfected with GFP-AR and subcellular localization of GFP-AR was determined after overnight treatment using fluorescent microscopy. FIG. 6C. Quantitative analysis of results in FIG. 6B. […] FIG. 6D. […] Endogenous AR was detected by immunofluorescent staining using AR antibody N-20 (Santa Cruz Biotechnology). Nuclei were stained with Hoechst.
# A prerequisite for AR transcriptional activity is its nuclear localization. To determine whether the subcellular localization of AR was altered during the progression to castration-resistance, AR-negative PC3 prostate cancer cells, androgen-sensitive LNCaP cells and castration-resistant C4-2 cells were transfected with AR tagged to green fluorescent protein (GFP) and localization was assessed by fluorescence microscopy in hormone-free conditions.
# Hsp90 plays an important role in ligand-induced AR nuclear translocation. […] To determine if the effect of hsp90 inhibition on endogenous AR in C4-2 cells was similar to its effect on transfected GFP-AR, immunofluorescence experiments were performed.
compound,measurement,setting,value
"Cc1cccc(N2CCN(C(=O)CSCc3c(C)noc3C)CC2)c1C [SID 3712502, 2-[(3,5-dimethyl-1,2-oxazol-4-yl)methylsulfanyl]-1-[4-(2,3-dimethylphenyl)piperazin-1-yl]ethanone]",cytotoxicity,C4-2 cells,little or no cytotoxicity
same,proliferation (BrdU incorporation),LAPC4 cells,inhibited the proliferation
same,localization of GFP-GR,GFP-GR,no effect
same,proliferation (BrdU incorporation),LNCaP cells,inhibited the proliferation
same,GFP-AR nuclear localization,GFP-AR,effectively inhibited
